Read-outs that look alike come from different tables or passages of the source.
What was measured:
[1] = aqueous; cited from earlier work
Candida albicans 10231 = test: MIC/MBC of pure DIMPTS, tube dilution procedure; type: cell-based
Procedure: (§1) Minimum inhibitory concentration is the lowest concentration that prevents the development of visible growth after a period of incubation. Minimum bactericidal concentration is the lowest concentration that achieves a 1000 fold or greater reduction in the original bacterial inoculum. The minimum inhibitory concentration (MIC) and minimum bactericidal concentration (MBC) is evaluated using tube dilution procedure.
(§2) The effectiveness of the antimicrobial property of pure DIMPTS is described in terms of minimum inhibitory concentration (MIC) and minimum bactericidal concentration (MBC) in Table II (A).

[2] = test system: Streptococcus agalactiae 624; test: MIC/MBC of pure DIMPTS, tube dilution procedure; type: cell-based; conditions: preliminary evaluation
Procedure: as §1, §2

[3] = test system: Staphylococcus aureus 6538; test: MIC/MBC of pure DIMPTS, tube dilution procedure; type: cell-based; conditions: preliminary evaluation
Procedure: as §1, §2

Bacillus subtilis 902173 = test: MIC/MBC of pure DIMPTS, tube dilution procedure; type: cell-based; conditions: preliminary evaluation
Procedure: as §1, §2

Escherichia coli 8739 = test: MIC/MBC of pure DIMPTS, tube dilution procedure; type: cell-based; conditions: preliminary evaluation
Procedure: as §1, §2

[4] = test system: Pseudomonas aeruginosa 9027; test: MIC/MBC of pure DIMPTS, tube dilution procedure; type: cell-based; conditions: preliminary evaluation
Procedure: as §1, §2

[5] = test system: Staphylococcus epidermidis 51625; test: MIC/MBC of pure DIMPTS, tube dilution procedure; type: cell-based; conditions: preliminary evaluation
Procedure: as §1, §2

[6] = test system: Staphylococcus aureus 33591; test: MIC/MBC of pure DIMPTS, tube dilution procedure; type: cell-based; conditions: preliminary evaluation
Procedure: as §1, with “procedure. The effectiveness of the antimicrobial property of pure […] is described in terms of minimum inhibitory concentration (MIC) and minimum bactericidal concentration (MBC) in Table II (A).” for “procedure.”

[7] = test system: Enterococcus faecium 700221; test: MIC/MBC of pure DIMPTS, tube dilution procedure; type: cell-based; conditions: preliminary evaluation
Procedure: as §1, with “procedure. The effectiveness of the antimicrobial property of pure […] is described in terms of minimum inhibitory concentration (MIC) and minimum bactericidal concentration (MBC) in Table II (A).” for “procedure.”

[8] = Solubility of DIMPTS in cyanoacrylate monomer; type: physicochemical
Text: Diiodomethyl-p-tolylsulfone (DIMPTS) is soluble in cyanoacrylate monomer at least up to 15,000 ppm (wt./wt.). Accordingly, formulations may herein have a concentration of diiodomethyl-p-tolylsulfone ranging from about 500 (0.05%) to about 10,000 ppm (1.00%), preferably from about 700 (0.07%) to about 7,000 ppm (0.70%), more preferably the concentration of diiodomethyl-p-tolylsulfone is about 2800 ppm (0.28%).

Row | Structure (SMILES) | pKa [1] | MBC (Candida albicans 10231; Candida albicans 10231, preliminary evaluation) [µg/mL] | MIC (Candida albicans 10231; Candida albicans 10231, preliminary evaluation, read-out: MIC) [µg/mL] | MIC (Candida albicans 10231; Candida albicans, 10231, statement in description, strain not given, read-out: minimum inhibitory concentration against C. albicans) [µg/mL] | MBC [2] [µg/mL] | MIC [2] [µg/mL] | MBC [3] [µg/mL] | MIC [3] [µg/mL] | MBC (Bacillus subtilis 902173) [µg/mL] | MIC (Bacillus subtilis 902173) [µg/mL] | MBC (Escherichia coli 8739) [µg/mL] | MIC (Escherichia coli 8739) [µg/mL] | MIC [4] [µg/mL] | MBC [5] [µg/mL] | MIC [5] [µg/mL] | MBC [6] [µg/mL] | MIC [6] [µg/mL] | MIC [7] [µg/mL] | soluble in cyanoacrylate monomer [8]
1 | [O-][Cl+3]([O-])([O-])O [perchloric acid] | −5.0 |  |  |  |  |  |  |  |  |  |  |  |  |  |  |  |  |  | 
2 | Cc1ccc(S(=O)(=O)C(I)I)cc1 [DIMPTS, diiodomethyl-p-tolylsulfone] |  | 10 to 100 | 5 | ~5 | 125 to 250 | 50 | < 250 | 100 | 50 to 100 | 50 | < 250 | 100 | > 100 | < 100 | 25 | < 250 | 12.5 | 50 | ≥ 15,000 ppm (wt./wt.)

Source: patent US8337881B2, “Cyanoacrylate monomer formulation containing diiodomethyl-p-tolylsulfone” (Ethicon, Inc., priority 2003, dated 2012)
